Measurements from US5399487A, “6-peptidylamino-1-naphthalenesulfonamides useful as fluorogenic proteolytic enzyme substrates” (Haematologic Technologies, Inc., priority 1993, dated 1995).

Tests used:
Type in all cases: biochemical
thrombin (IIa) = molecular target: T1, thrombin (IIa) (Homo sapiens, UniProt P00734); assay: Fluorogenic enzyme assay (Example 5)
T1 construct: 0.5 nM human thrombin (IIa)
How it was run: (§1)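 Kinetic constants (Km, kcat) of substrate hydrolysis are derived by fitting initial rates to the Michaelis-Menten equation. Assays use TBS at pH 7.4 and 22° C, with fluorescence of the released naphthalenesulfonamide fluorophore recorded at 352/470 nm.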

[1] = molecular target: activated protein C (APC) (Homo sapiens, UniProt P04070); assay: Fluorogenic enzyme assay (Example 5); design: key to Kinetic constants, APC (symbol b): slow substrate hydrolysis, no kinetic constants calculated
How it was run: as §1

plasmin (Plm) = plasmin (Plm) (Homo sapiens, UniProt P00747); assay: Fluorogenic enzyme assay (Example 5); conditions: 10 nM enzyme, substrate 1 μM
How it was run: as §1

[2] = molecular target: tissue plasminogen activator (t-PA) (Homo sapiens, UniProt P00750); assay: Fluorogenic enzyme assay (Example 5); conditions: 100 nM enzyme, substrate 1 μM
How it was run: as §1

urokinase (u-PA) = urokinase (u-PA) (Homo sapiens, UniProt P00749); assay: Fluorogenic enzyme assay (Example 5); conditions: 100 nM enzyme, substrate 1 μM
factor VIIa = molecular target: T2, factor VIIa (Homo sapiens, UniProt P08709); assay: Fluorogenic enzyme assay, relative hydrolysis rates (Table 8); conditions: 10 nM enzyme, substrate 1 μM
T2 construct: directly measure the enzymatic activity of factor VIIa in the presence and absence of tissue factor and phospholipid
T2 sequence (P08709 213-466 limits assumed): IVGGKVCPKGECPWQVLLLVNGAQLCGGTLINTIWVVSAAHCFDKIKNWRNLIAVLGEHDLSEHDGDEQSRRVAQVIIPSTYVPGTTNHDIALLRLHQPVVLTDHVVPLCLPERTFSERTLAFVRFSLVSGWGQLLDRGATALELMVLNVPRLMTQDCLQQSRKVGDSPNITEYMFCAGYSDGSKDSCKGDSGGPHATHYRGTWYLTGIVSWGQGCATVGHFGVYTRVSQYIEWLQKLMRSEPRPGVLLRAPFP
T2 sequence (P08709 61-212 limits assumed): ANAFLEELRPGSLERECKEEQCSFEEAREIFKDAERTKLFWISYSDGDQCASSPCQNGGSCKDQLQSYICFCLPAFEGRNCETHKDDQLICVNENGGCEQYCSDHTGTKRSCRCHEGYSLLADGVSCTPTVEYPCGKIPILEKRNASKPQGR

VIIa/Ca^2+ = molecular target: T3, VIIa/Ca^2+ (Homo sapiens, UniProt P08709); assay: Fluorogenic factor VIIa assay (Example 6); conditions: HBS, 37° C., 50 nM rVIIa
T3 construct: directly measure the enzymatic activity of factor VIIa in the presence and absence of tissue factor and phospholipid
T3 sequence (P08709 213-466 limits assumed): T2 sequence (P08709 213-466 limits assumed)
T3 sequence (P08709 61-212 limits assumed): T2 sequence (P08709 61-212 limits assumed)
Procedure: (§2) Factor VII assays were conducted in 20 mM HEPES, 150 mM NaCl, 5 mM CaCl2, pH 7.4 (HBS) at 37° C. The final volume for all reactions was 1.6 ml. 6-(Mes-D-Leu-Gly-Arg)amino-1-(N,N-diethyl)naphthalenesulfonamide was dissolved in DMSO to a stock concentration of 10 mM. This 10 mM stock solution of was diluted in HBS to final working concentration prior to all assays. For reactions involving tissue factor (TF) and phospholipid vesicles, recombinant human tissue factor was solubilized in either 0.04% n-dodecyl octaethylene glycol (C12 E8) or 0.8% octyl glucoside. The TF/n-dodecyl octaethylene glycol was then relipidated into PCPS or PC vesicles by a 30 minute incubation step as described by Lawson & Mann, J. Biol. Chem. 266: 11317-11327 (1991). TF/octyl glucoside was relipidated into PC or PCPS vesicles by a thirty minute incubation step followed by exhaustive dialysis. The final concentration of tissue factor used in the studies described here ranged from 2 to 50 nM depending on the nature of the experiment.
(§3) Fifteen minutes prior to the start of all reactions factor VIIa was added to the reaction system. This incubation period was followed by the addition of substrate (1 μM to 400 μM) to the mixture to start the reaction. In experiments designed to determine kinetic constants of substrate hydrolysis, 50 nM rVIIa was used when no tissue factor was present in the reaction system, while 0.5 nM rVIIa was used when tissue factor was present in the reaction system. The rate of substrate hydrolysis was measured by change in fluorescence over time, which corresponded with the generation of the 6-amino-1-(N,N-diethyl)naphthalenesulfonamide from the provided substrate. The kinetic constants of 6-(Mes-D-Leu-Gly-Arg)amino-1-(N,N-diethyl)naphthalenesulfonamide hydrolysis as a function of factor VIIa/tissue factor complex assembly are shown in Table 10.

VIIa/PCPS/Ca^2+ = molecular target: T4, VIIa/PCPS/Ca^2+ (Homo sapiens, UniProt P08709); assay: Fluorogenic factor VIIa assay (Example 6); conditions: HBS, 37° C., 50 nM rVIIa
T4 construct: directly measure the enzymatic activity of factor VIIa in the presence and absence of tissue factor and phospholipid
T4 sequence (P08709 213-466 limits assumed): T2 sequence (P08709 213-466 limits assumed)
T4 sequence (P08709 61-212 limits assumed): T2 sequence (P08709 61-212 limits assumed)
Procedure: as §2, §3

VIIa/TF/PC/CA^2+ = molecular target: T5, VIIa/TF/PC/CA^2+ (Homo sapiens, UniProt P08709); assay: Fluorogenic factor VIIa assay (Example 6); conditions: HBS, 37° C., 0.5 nM rVIIa
T5 construct: directly measure the enzymatic activity of factor VIIa in the presence and absence of tissue factor and phospholipid
Procedure: as §2, §3

VIIa/TF/PCPS/Ca^2+ = molecular target: T6, VIIa/TF/PCPS/Ca^2+ (Homo sapiens, UniProt P08709); assay: Fluorogenic factor VIIa assay (Example 6); conditions: HBS, 37° C., 0.5 nM rVIIa
T6 construct: directly measure the enzymatic activity of factor VIIa in the presence and absence of tissue factor and phospholipid
Procedure: as §2, §3

T5 sequence (P13726 33-295 partner, one chain of several): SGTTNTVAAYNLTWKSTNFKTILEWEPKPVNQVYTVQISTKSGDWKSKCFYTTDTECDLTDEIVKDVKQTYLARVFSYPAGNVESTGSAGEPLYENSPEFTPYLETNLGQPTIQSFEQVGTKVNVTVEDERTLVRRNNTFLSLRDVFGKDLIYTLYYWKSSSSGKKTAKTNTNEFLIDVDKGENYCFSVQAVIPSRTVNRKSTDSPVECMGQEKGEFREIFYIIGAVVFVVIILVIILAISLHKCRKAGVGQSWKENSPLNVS
T6 sequence (P13726 33-295 partner, one chain of several): as above
Chain of activated protein C (APC) (P04070 212-461 limits assumed): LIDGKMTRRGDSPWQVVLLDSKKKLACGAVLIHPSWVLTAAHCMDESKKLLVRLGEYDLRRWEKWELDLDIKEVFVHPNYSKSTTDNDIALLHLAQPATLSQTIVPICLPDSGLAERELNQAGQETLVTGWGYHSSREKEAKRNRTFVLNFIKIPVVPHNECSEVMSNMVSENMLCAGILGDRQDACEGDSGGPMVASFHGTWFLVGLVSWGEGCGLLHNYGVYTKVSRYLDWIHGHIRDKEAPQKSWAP
Chain of activated protein C (APC) (P04070 43-197 limits assumed): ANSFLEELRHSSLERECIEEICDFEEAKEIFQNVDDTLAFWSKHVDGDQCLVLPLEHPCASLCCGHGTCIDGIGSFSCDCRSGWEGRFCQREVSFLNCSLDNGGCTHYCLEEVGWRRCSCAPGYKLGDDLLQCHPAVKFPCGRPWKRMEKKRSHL
Chain of plasmin (Plm) (P00747 581-810 limits assumed, species assumed): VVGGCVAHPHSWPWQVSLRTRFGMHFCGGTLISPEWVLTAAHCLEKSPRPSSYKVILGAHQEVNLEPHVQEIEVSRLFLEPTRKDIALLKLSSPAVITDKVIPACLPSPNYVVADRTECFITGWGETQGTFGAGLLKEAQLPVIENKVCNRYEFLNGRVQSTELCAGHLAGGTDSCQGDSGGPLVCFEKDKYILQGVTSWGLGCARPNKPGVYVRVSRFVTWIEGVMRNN
Chain of plasmin (Plm) (P00747 97-580 limits assumed, species assumed): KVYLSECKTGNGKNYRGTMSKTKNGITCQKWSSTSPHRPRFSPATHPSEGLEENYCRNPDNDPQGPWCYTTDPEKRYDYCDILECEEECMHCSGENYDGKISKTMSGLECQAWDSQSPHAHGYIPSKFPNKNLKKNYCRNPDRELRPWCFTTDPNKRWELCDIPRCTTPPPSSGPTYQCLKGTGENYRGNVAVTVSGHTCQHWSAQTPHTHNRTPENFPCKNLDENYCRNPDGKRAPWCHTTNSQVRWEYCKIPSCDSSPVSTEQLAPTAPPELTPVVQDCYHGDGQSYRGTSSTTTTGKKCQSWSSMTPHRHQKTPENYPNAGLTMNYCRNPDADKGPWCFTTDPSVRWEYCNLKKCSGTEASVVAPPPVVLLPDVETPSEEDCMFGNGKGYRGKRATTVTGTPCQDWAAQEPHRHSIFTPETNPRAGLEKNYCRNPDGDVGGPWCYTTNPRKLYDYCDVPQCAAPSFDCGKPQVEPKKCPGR
Chain of tissue plasminogen activator (t-PA) (P00750 36-562, species assumed): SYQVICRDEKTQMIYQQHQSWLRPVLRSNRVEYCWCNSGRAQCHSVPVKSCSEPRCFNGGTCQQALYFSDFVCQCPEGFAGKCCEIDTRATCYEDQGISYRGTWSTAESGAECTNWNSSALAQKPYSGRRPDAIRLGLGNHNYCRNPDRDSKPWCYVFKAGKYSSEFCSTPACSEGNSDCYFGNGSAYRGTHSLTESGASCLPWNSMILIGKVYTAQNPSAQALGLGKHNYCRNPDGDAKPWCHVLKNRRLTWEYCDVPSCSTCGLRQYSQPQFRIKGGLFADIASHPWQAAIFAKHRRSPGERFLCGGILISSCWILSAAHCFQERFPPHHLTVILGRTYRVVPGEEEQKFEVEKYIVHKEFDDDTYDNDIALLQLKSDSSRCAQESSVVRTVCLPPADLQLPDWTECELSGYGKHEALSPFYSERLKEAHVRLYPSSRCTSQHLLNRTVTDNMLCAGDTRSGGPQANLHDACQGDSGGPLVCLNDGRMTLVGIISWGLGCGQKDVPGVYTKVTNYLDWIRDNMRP

TIME TO 10% HYDROLYSIS (HOURS), IIa (thrombin (IIa); 10 nM enzyme, substrate 1 μM): 0.33 h
Km (thrombin (IIa); Table 9): 31.6 µM
kcat /Km, IIa (thrombin (IIa); Table 9): 20000 M⁻¹ s⁻¹
kcat, IIa (thrombin (IIa); Table 9): 0.63 s⁻¹
TIME TO 10% HYDROLYSIS (HOURS), APC ([1]; 100 nM enzyme (footnote b), substrate 1 μM): 0.5 h
Kinetic constants, APC (symbol b) ([1]; Table 9): b
TIME TO 10% HYDROLYSIS (HOURS), Plm (plasmin (Plm)): 1 h
TIME TO 10% HYDROLYSIS (HOURS), t-PA [2]: 2 h
TIME TO 10% HYDROLYSIS (HOURS), u-PA (urokinase (u-PA)): 2 h
TIME TO 10% HYDROLYSIS (HOURS), VIIa (factor VIIa): 4 h
kcat /Km (VIIa/Ca^2+): 41.4 M^-1 S^-1
kcat sec^-1 ± S.E. (VIIa/Ca^2+): 0.010 ± 0.002 s⁻¹
Km (VIIa/Ca^2+; read-out: Km μM ± S.E.): 249 ± 88.5 µM
kcat /Km (VIIa/PCPS/Ca^2+): 32.6 M^-1 S^-1
kcat sec^-1 ± S.E. (VIIa/PCPS/Ca^2+): 0.019 ± 0.003 s⁻¹
Km (VIIa/PCPS/Ca^2+; read-out: Km μM ± S.E.): 580 ± 101 µM
kcat /Km (VIIa/TF/PC/CA^2+): 4206 M^-1 S^-1
kcat sec^-1 ± S.E. (VIIa/TF/PC/CA^2+): 0.875 ± 0.032 s⁻¹
Km (VIIa/TF/PC/CA^2+; read-out: Km μM ± S.E.): 208 ± 12 µM
kcat /Km (VIIa/TF/PCPS/Ca^2+): 4166 M^-1 S^-1
kcat sec^-1 ± S.E. (VIIa/TF/PCPS/Ca^2+): 0.675 ± 0.046 s⁻¹
Km (VIIa/TF/PCPS/Ca^2+; read-out: Km μM ± S.E.): 162 ± 16 µM
SMILES: CCN(CC)S(=O)(=O)c1cccc2cc(NC(=O)[C@H](CCCNC(=N)N)NC(=O)CNC(=O)[C@@H](CC(C)C)NS(C)(=O)=O)ccc12 [MesD-LPR-ANSN(C2 H5)2, 6-(Mes-D-Leu-Gly-Arg)amino-1-(N,N-diethyl)napththalenesulfonamide]
